According to patent publication US20160115225A1, “Methods of Reducing Methylglyoxal (MGO) Modification of Recombinant Proteins in Cell Culture” (AbbVie Inc., priority 2014, published 2016):

Test system: adalimumab producing cell line 2
Test: WCX-10 quantification of acidic species of adalimumab, bioreactor culture, cell line 2
Assay type: cell-based
Conditions: Example 4; 0.15 g/l 2DDG; control 29.8%
Protocol: Two adalimumab producing cell lines were employed in the studies covered here. Upon thaw, cells were cultured in their respective growth media in a combination of vented non-baffled shake flasks (Corning) on a shaker platform at 110 RPM (cell line 1) and 140 RPM (cell line 2) and 10 L or 20 L wave bags (GE). Cultures were propagated in a 35° C., 5% CO2 incubator for cell line 1 and 36° C., 5% CO2 incubator for cell line 2 to obtain the required number of cells to be able to initiate production stage cultures.
For the bioreactor (3 L Applikon) experiments (Examples 1, 2 and 3), 3 L, bioreactors (1.5 L working volume) were initiated at 35° C. (cell line 1) and 36° C. (cell line 2), 30% DO, 200 rpm, pH of 7.1. […]
This method is employed towards the quantification of the acidic species and other charge variants present in cell culture harvest samples. […]
Quantitation is based on the relative area percent of detected peaks. […]
The objective of this experiment was to further evaluate the control of MGO synthesis/MGO protein modification through reduced glucose consumption in a different cell line, Cell line 2. […] As described in Example 3, extracellular MGO quantification was performed for day 7, 8 and 9 for the samples below and percentage of acidic species were quantified using WCX-10 analysis post protein A of cell culture harvests.

O=CC[C@@H](O)[C@H](O)[C@H](O)CO [Test 2DDG, 2-Deoxy-D-Glucose]
percentage of acidic species: 27.2%
